Experimental data as given in paper PMC9265957, “Bioavailability of Rosehip (Rosa canina L.) Infusion Phenolics Prepared by Thermal, Pulsed Electric Field and High Pressure Processing” (Foods, 2022).
Read-outs that look alike come from different tables or passages of the source.

Columns and labels:
[1] = design: method as in Rodríguez-Roque et al. [11]; conditions: fruit juice blends, traditional thermal treatment; ref Rodríguez-Roque et al. [11]; cited from earlier work
[2] = cited from earlier work
Caco-2 cells = assay: Transepithelial transportation of catechin from digests across the Caco-2 monolayer; assay type: in vitro ADME, Human; conditions: 4 h; digests diluted 1/5
Description: The in vitro gastrointestinal digestion was simulated regarding the procedures of Ozkan et al. and Sessa et al., with minor modifications. This assay involves two sequential stages: gastric digestion and bile salt/pancreatin digestion. For the gastric digestion, the samples containing 1.3 mg/mL final concentration of pepsin at pH 2 were placed in a water bath (GFL 1092, Burgwedel, Germany) at 37 °C and 100 rpm for a 2 h incubation period. To simulate intestinal digestion, gastric chyme was mixed with 0.175 mg/mL pancreatin and 1.10 mg/mL bile salts at pH 6.5, and then placed in a water bath at 37 °C and 100 rpm for 2 h incubation. […]
The transport trial was carried out based on Wu et al.. […] TEER values of the cells were determined before the experiment, after the last sampling and 24 h after the incubation period. […]
The quantification of phenolic compounds in rosehip infusions was conducted by UPLC based on Ozkan et al., with minor changes. Digests obtained from apical and basolateral sides were analyzed by a Waters Acquity UPLC system (Waters Co., Milford, MA, USA) combined with a diode array detector (DAD). […] Catechin concentration was determined by using its authentic standard. […] The results were expressed as mg catechin per 100 g dw (dry weight) of rosehip. […]

[3] = design: method as in doi:10.1111/jfpp.16096; conditions: rosehip infusions by TT, HPP and PEF, depending on the treatment; cited from earlier work
[4] = design: method as in PMID 31100382; conditions: ex vivo; after one hour; cited from earlier work
[5] = design: method as in PMID 31100382; conditions: rats; oral administration; after one hour; cited from earlier work
[6] = design: method as in earlier work; conditions: mice, cited from earlier work
[7] = design: method as in doi:10.1016/j.jff.2018.10.025; conditions: rats; after 6 h; cited from earlier work
cellular monolayer = test system: cellular monolayer; design: method as in doi:10.1021/acsomega.8b03499; conditions: sweet cherry phenolics; cited from earlier work
[8] = design: method as in PMID 24191680; conditions: sour cherry fruit and nectar samples, depending on ingredients and processing; cited from earlier work

## O=C1O[C@H]([C@@H](O)CO)C(O)=C1O [vitamin C]
[1]
  bioaccessibility: 11.1%

## O=C(O[C@@H]1Cc2c(O)cc(O)cc2O[C@@H]1c1ccc(O)c(O)c1)c1cc(O)c(O)c(O)c1 [epicatechin gallate]
[2]; five healthy 22-year-old women
  amounts in plasma with chocolate food matrix: reduced
  form detected in plasma: aglycon form

## O.Oc1cc(O)c2c(c1)O[C@H](c1ccc(O)c(O)c1)[C@@H](O)C2 [catechin, Catechin]
Caco-2 cells
  Apical Recovery (%) of catechin: 68–69%
[3]
  catechin lost after gastrointestinal digestion: 51.8–61.0%
[4]
  permeation across the intestinal tissue: 12.5 µg
[5]
  maximum concentration in plasma: 120 ± 3.97 ng/mL
[6]; sour mangosteen rind
  maximum plasma catechin level: 1.10 µg/mL

## Oc1cc(O)c2c(c1)OC(c1ccc(O)c(O)c1)C(O)C2 (stereo not drawn) [free catechin]
[7]
  bioavailability (plasma catechin values): 0.241 µM·h

## O=C(O[C@@H]1Cc2c(O)cc(O)cc2O[C@@H]1c1cc(O)c(O)c(O)c1)c1cc(O)c(O)c(O)c1 [epigallocatechin gallate]
[2]; five healthy 22-year-old women
  amounts in plasma with chocolate food matrix: reduced
  form detected in plasma: aglycon form

## Oc1cc(O)c2c(c1)O[C@H](c1ccc(O)c(O)c1)[C@H](O)C2 [epicatechin]
Cellular monolayer
  quantity that crossed the cell monolayer: 0.37%
[8]
  basolateral side recovery: 1.1–3.8%
[6]; sour mangosteen peel
  maximum plasma epicatechin concentration: 62.03 µg/mL
[2]; five healthy 22-year-old women
  amounts in plasma with chocolate food matrix: no alteration
  form detected in plasma: conjugated metabolites

## Oc1cc(O)c2c(c1)O[C@H](c1cc(O)c(O)c(O)c1)[C@H](O)C2 [epigallocatechin]
[2]; in vivo
  amounts in plasma with chocolate food matrix: no alteration
  form detected in plasma: conjugated metabolites
